≈ marks a conversion by molar mass, not a printed value.
What was measured:
Escherichia coli [1] = experiment: Antibacterial activity against pET28a-NDM-1 positive Escherichia coli BL21(DE3) isolates assessed as kanamycin MIC incubated for 18 to 24 hrs by CLSI based broth microdilution method; format: functional; conditions: time 18-24 hrs
Escherichia coli [2] = experiment: Antibacterial activity against pET28a-NDM-1 positive Escherichia coli BL21(DE3) isolates assessed as vancomycin MIC incubated for 18 to 24 hrs by CLSI based broth microdilution method; format: functional; conditions: time 18-24 hrs
Escherichia coli [3] = experiment: Antibacterial activity against pET28a-NDM-1 positive Escherichia coli BL21(DE3) isolates assessed as ciprofloxacin MIC incubated for 18 to 24 hrs by CLSI based broth microdilution method; format: functional; conditions: time 18-24 hrs
Escherichia coli [4] = experiment: Antibacterial activity against pET28a-NDM-1 positive Escherichia coli BL21(DE3) isolates assessed as colistin MIC incubated for 18 to 24 hrs by CLSI based broth microdilution method; format: functional; conditions: time 18-24 hrs
Escherichia coli [5] = experiment: Synergistic antibacterial activity against pET28a NDM-1 positive Escherichia coli BL21(DE3) isolates assessed as fractional Inhibitory concentration index incubated for 18 to 24 hrs in presence of ampicillin by CLSI based broth microdilution method; format: functional; conditions: time 18-24 hrs
Escherichia coli [6] = experiment: Synergistic antibacterial activity against pET28a NDM-1 positive Escherichia coli BL21(DE3) isolates assessed as fractional Inhibitory concentration index incubated for 18 to 24 hrs in presence of tetracycline by CLSI based broth microdilution method; format: functional; conditions: time 18-24 hrs
Escherichia coli [7] = experiment: Synergistic antibacterial activity against pET28a NDM-1 positive Escherichia coli BL21(DE3) isolates assessed as fractional Inhibitory concentration index incubated for 18 to 24 hrs in presence of cefotaxime by CLSI based broth microdilution method; format: functional; conditions: time 18-24 hrs
Escherichia coli [8] = experiment: Synergistic antibacterial activity against NDM-1 positive Escherichia coli ZC-YN3 isolates assessed as fractional Inhibitory concentration index incubated for 18 to 24 hrs in presence of tetracycline by CLSI based broth microdilution method; format: functional; conditions: time 18-24 hrs
Escherichia coli [9] = experiment: Synergistic antibacterial activity against NDM-1 positive Escherichia coli ZC-YN3 isolates assessed as fractional Inhibitory concentration index incubated for 18 to 24 hrs in presence of vancomycin by CLSI based broth microdilution method; format: functional; conditions: time 18-24 hrs
Escherichia coli [10] = experiment: Synergistic antibacterial activity against NDM-1 positive Escherichia coli ZC-YN3 isolates assessed as fractional Inhibitory concentration index incubated for 18 to 24 hrs in presence of spectinomycin by CLSI based broth microdilution method; format: functional; conditions: time 18-24 hrs
[11] = Inhibition of metallo-beta-lactamase NDM-9 (unknown origin) using nitrocefin as substrate preincubated for 15 min followed by substrate addition and measured after 15 min by microplate reader assay; parameters: species or system Bacteria
Mus musculus = experiment: Synergistic antibacterial activity in BALB/c mouse infected with NDM-1 positive Escherichia coli ZJ487 assessed as increase in survival rate at 50 mg/kg, sc administered every 12 hrs and measured after 96 hrs post infection in presence of meropenem; format: functional
Bacteria [12] = experiment: Binding affinity to NDM-1 (unknown origin) assessed as binding free energy by fluorescence quenching method
Bacteria [13] = system: Bacteria
Description: Binding affinity to NDM-1 M248A mutant (unknown origin) assessed as binding constant by fluorescence quenching method

Question: Which results are given for `O=c1c(O)c(-c2ccc(O)c(O)c2)oc2cc(O)ccc12` [FISETIN]?
Answer: MIC (Escherichia coli [1]): 512 mg/L; MIC (Escherichia coli [2]): 683 mg/L; MIC (Escherichia coli [3]): 341 mg/L; MIC (Escherichia coli [4]): 1.67 mg/L; fractional inhibitory concentration index (FICI) (Escherichia coli [5]): 0.96; fractional inhibitory concentration index (FICI) (Escherichia coli [6]): 0.96; fractional inhibitory concentration index (FICI) (Escherichia coli [7]): 1.13; fractional inhibitory concentration index (FICI) (Escherichia coli [8]): 1.13; fractional inhibitory concentration index (FICI) (Escherichia coli [9]): 0.96; fractional inhibitory concentration index (FICI) (Escherichia coli [10]): 1.13; IC50 [11]: 25.98 mg/L (≈ 90.8 µM); Activity (Mus musculus): 60%; Activity (Bacteria [12]): -105 kJ/mol; Ka (Bacteria [13]): 7.39 10^5L/mol

From ChEMBL document CHEMBL5131475, “Metallo-β-lactamases inhibitor fisetin attenuates meropenem resistance in NDM-1-producing Escherichia coli” (Eur J Med Chem, 2022)
